Consider three compounds from paper PMC7565698, “Catabolic Reductive Dehalogenase Substrate Complex Structures Underpin Rational Repurposing of Substrate Scope” (Microorganisms, 2020).

Experiment [1] has as its target T1, NpRdhA (Nitratireductor pacificus, UniProt K2MB66, A419M).
T1 construct: gene NA2_14372; full-length, N-terminal His6 tag (NpRdhA^N; crystals) or C-terminal His6 tag (NpRdhA^C; A419M); expressed in Bacillus megaterium; holds cobalamin and two [4Fe-4S] clusters
Put plainly: HPLC of dehalogenation products. The format is biochemical. The note with it: NADPH, spinach ferredoxin, E. coli flavodoxin reductase, 30 °C, anaerobic; C-terminal His tag.

Experiment [2] has as its target T2, NpRdhA (Nitratireductor pacificus, UniProt K2MB66).
T2 construct: gene NA2_14372; full-length, N-terminal His6 tag (NpRdhA^N; crystals) or C-terminal His6 tag (NpRdhA^C; A419M); expressed in Bacillus megaterium; holds cobalamin and two [4Fe-4S] clusters
Put plainly: X-ray crystal structure, soaked crystals ([…] Å). It is filed as binding. The note with it: N-terminal His tag, 100 mM soak.

The target in experiment [3] is T2, NpRdhA. Briefly: X-band continuous wave EPR of cob(II)alamin. The format is binding. The note with it: 20 mM ligand, 100 uM protein, 30 K.

T2 sequence (K2MB66 entry or part of it): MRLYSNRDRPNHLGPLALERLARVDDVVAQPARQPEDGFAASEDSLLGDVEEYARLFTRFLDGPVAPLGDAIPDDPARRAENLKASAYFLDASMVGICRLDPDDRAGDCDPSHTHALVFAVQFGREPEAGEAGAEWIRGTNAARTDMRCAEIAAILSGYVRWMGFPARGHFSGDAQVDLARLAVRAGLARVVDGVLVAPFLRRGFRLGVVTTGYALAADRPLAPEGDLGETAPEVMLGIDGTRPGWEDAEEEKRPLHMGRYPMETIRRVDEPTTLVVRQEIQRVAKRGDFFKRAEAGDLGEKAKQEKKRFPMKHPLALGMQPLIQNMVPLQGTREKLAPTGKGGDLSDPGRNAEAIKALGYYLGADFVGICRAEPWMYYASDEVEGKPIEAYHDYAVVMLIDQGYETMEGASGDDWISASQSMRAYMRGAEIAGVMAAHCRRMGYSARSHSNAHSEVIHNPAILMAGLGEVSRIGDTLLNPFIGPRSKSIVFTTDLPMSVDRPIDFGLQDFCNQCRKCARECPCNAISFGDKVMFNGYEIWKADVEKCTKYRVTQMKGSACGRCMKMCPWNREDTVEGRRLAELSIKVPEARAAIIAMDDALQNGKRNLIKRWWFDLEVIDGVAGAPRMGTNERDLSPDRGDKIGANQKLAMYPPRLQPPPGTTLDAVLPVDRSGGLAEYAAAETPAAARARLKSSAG
T1 sequence (K2MB66 entry or part of it A419M): as the sequence (K2MB66 entry or part of it) above, with A419M counted along it

As to `O=C(O)c1cc(Br)c(O)c(Br)c1` [35-DB-4-OH, 3,5-dibromo-4-hydroxybenzoic acid], the “HPLC of dehalogenation products” value at NpRdhA [1] was “revealed the ability to dehalogenate 35-DB-4-OH, 3-B-4-OH, 35-DC-4-OH and 3-C-4-OH”. The “X-ray crystal structure, soaked crystals (1.99 Å)” value at NpRdhA [2] (active site above cobalamin, Br at Co beta-axial position, partial photoreduction to 3-bromo-4-hydroxybenzoic acid) is given as 35-DB-4-OH is located above the cobalamin.

Take `O=C(O)c1ccc(O)c(Br)c1` [3-B-4-OH, 3-bromo-4-hydroxybenzoic acid]: at NpRdhA [1], the “HPLC of dehalogenation products” value was “revealed the ability to dehalogenate 35-DB-4-OH, 3-B-4-OH, 35-DC-4-OH and 3-C-4-OH”. Moreover, at NpRdhA [2] (three conformations, one with Br ligating Co, one at the active site entrance), the “X-ray crystal structure, soaked crystals (1.99 Å)” value is recorded as “structure of the NpRdhA^N protein in complex with 3-B-4-OH obtained through soaking”.

With `O=C(O)c1cc(Cl)c(O)c(Cl)c1` [35-DC-4-OH, 3,5-dichloro-4-hydroxybenzoic acid], the “X-band continuous wave EPR of cob(II)alamin” value at NpRdhA [3] was “a distinct change in both g and hyperfine coupling values on substrate binding”.
